The assay concerns Bovine lens lysates. Kind of assay: Prevention of UVC/H2O2-induced aggregation (opacification) of bovine lens extracts. The assay is classed as biochemical. To be noted: bovine lens lysates 2 mg/ml, various concentrations of compound, UV-irradiated, vs vehicle 0.5% DMSO. Here is the method:
Bovine lens lysates (2 mg/ml, 50 μl) were incubated with various concentrations of CAP1160 (structure shown below) or a vehicle (0.5% DMSO), and then left unexposed (no exposure) or exposed to UV (UV-irradiated). At various time points, wells-containing bovine lens lysates were pictured and the corresponding absorbance at 600 nm (A600) was measured. Representative brightfield images of wells taken 7 min after initial UV exposure (FIG. 1A) and corresponding A600 (FIG. 1B).

As for `Cc1ccc(C(=O)c2cc(O)c(O)c([N+](=O)[O-])c2)cc1` [CAP1160], the “opacification of bovine lens protein lysates induced by UV irradiation (absorbance at 600 nm, brightfield images)” value was “delays, in a dose-dependent manner, the opacification”.

The values are drawn from patent publication US20240327439A1, “PHARMACOLOGICAL AGENTS FOR PREVENTING AND TREATING CATARACTS AND PRESBYOPIA EYE DISEASES” (Plex Pharmaceuticals, Inc., priority 2021, published 2024).
